Results from article PMC11786751, “An SH3-binding allosteric modulator stabilizes the global conformation of the AML-associated Src-family kinase, Hck” (The Journal of Biological Chemistry, 2024).

Experiments:
Src = biological target: T1, Src (Homo sapiens, UniProt P12931); test: SPR; format: binding
T1 construct: near-full-length (SH3-SH2-kinase-tail)

Hck [1] = biological target: T2, Hck (Homo sapiens, UniProt P08631); test: 1H-15N HSQC NMR titration; also SPR (KD […], near-full-length) and HDX-MS; format: binding
T2 construct: SH3 domain (p59 Hck amino acids 80–144); also SH3-SH2-linker (84–261) and near-full-length Hck (84–524)
T2 sequence (P08631 75-139): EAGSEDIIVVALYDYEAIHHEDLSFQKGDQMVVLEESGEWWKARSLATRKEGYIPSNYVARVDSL

Hck [2] = biological target: T3, Hck (Homo sapiens, UniProt P08631, H284A/T285A/Q523E/Q524E/Q525I); test: kinetic kinase assay (ADP Quest), activation of the mutant kinase; format: biochemical
T3 construct: near-full-length Hck (p59 amino acids 84–524, modified tail YEEIP)
T3 sequence (P08631 79-526 H284A/T285A/Q523E/Q524E/Q525I): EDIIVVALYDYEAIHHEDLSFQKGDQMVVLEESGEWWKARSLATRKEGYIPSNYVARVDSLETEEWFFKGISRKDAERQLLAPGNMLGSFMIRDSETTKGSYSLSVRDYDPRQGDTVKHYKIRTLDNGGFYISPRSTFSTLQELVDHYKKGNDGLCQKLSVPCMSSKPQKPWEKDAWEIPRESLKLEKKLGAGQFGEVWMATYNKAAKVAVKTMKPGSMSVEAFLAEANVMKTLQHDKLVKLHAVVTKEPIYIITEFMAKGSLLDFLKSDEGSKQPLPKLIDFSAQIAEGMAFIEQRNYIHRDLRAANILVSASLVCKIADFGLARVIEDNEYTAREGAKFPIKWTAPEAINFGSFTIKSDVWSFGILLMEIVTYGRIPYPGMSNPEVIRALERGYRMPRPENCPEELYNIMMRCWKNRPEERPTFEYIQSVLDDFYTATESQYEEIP

Lyn = biological target: T4, Lyn (Homo sapiens, UniProt P07948); test: SPR; format: binding
T4 construct: near-full-length (SH3-SH2-kinase-tail)
T4 sequence (P07948 2-512): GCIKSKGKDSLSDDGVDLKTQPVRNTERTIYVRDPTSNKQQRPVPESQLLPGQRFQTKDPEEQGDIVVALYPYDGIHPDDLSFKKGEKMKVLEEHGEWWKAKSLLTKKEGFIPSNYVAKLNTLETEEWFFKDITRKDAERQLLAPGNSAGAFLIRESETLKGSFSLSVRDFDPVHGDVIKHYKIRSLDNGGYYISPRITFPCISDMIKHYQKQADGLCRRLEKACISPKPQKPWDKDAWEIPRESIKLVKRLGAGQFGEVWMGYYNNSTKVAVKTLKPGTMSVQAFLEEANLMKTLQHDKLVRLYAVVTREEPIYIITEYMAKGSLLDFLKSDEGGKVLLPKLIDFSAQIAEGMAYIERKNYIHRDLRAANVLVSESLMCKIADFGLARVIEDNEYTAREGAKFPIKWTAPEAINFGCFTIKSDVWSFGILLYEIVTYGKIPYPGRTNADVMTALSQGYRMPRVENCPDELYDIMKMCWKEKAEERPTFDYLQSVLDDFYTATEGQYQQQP

Hck [3] = biological target: T2, Hck; test: 1H-15N HSQC NMR titration; also SPR (KD […], near-full-length), HDX-MS and kinase activation; format: binding

T1 sequence (P12931 2-536): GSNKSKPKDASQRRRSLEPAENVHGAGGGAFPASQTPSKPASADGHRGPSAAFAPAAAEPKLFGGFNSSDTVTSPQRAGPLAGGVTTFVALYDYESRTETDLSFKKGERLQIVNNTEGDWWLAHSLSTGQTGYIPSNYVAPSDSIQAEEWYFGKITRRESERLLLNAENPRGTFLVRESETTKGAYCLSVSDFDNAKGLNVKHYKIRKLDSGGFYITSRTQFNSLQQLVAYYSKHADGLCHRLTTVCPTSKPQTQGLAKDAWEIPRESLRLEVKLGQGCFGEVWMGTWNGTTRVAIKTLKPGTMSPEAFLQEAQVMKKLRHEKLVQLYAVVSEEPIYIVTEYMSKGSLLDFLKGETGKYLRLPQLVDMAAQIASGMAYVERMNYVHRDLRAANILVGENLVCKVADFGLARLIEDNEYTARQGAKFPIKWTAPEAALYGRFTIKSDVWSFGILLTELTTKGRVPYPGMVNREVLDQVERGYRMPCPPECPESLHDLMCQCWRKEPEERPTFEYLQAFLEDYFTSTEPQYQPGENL

## CC(C)Nc1ccnc(NCc2cccnc2Oc2ccc(F)cc2)n1 [PDA1]
Src
  Kd: 55 ± 2.18 µM
Hck [1]
  Kd: 42.6 ± 4.7 µM
Hck [2]
  kinetic kinase assay (ADP Quest), activation of the mutant kinase: Both PDA1 and PDA2 activated Hck-HTA (Fig. 7B), unlike WT Hck, which is only activated by PDA2
Lyn
  Kd: 74.9 ± 19.9 µM

## Cc1cnc(NCc2ccccc2-n2ccnc2)nc1N(C)C [PDA2]
Hck [3]
  Kd: 65.1 ± 3.1 µM
Src
  Kd: 236 ± 18.1 µM
Lyn
  Kd: 180 ± 33.7 µM
